Where two headings read alike, the source gives them in different places. Blank lines part the entries; values can stand above or below the compound they belong to.
Assays:
recombinant AKT1 protein = molecular target: T1, recombinant AKT1 protein (Homo sapiens, UniProt P31749); experiment: Surface plasmon resonance (SPR) binding assay; conditions: Biacore 8K, read-out: mean KD, MG–AKT
T1 construct: His tag; purchased Abcam ab116412
Method: To confirm the binding affinity of recombinant AKT1 protein and MG, SPR assay was performed with Biacore 8K (Biacore, Cytiva), and the K D value was calculated using the Biacore 8K evaluation software 2.0 (GE Healthcare). Detailed information on SPR assay is provided in Supplementary Materials Section 11 . […]
compound was greater than 9.0×106cm/s and 40% which indicated drug-like […]
Section 11 Surface plasmon resonance (SPR) assay
SPR binding assays were analyzed with Biacore 8K (Biacore, Cytiva). Materials and reagents used in SPR assays were purchased from Cytiva. The histidine-tagged AKT1 (Cat No. ab116412, Abcam, Cambridge, UK) was immobilized on the surface of Carboxymethylated (CM5) sensor chip through the standard amino coupling method. The carboxyl groups of the sensor surface were activated by injection of a solution containing 0.2M N-ethyl-N9-(3-dimethylaminopropyl) carbodiimide (EDC) and 0.05M N-hydroxysuccinimide (NHS), AKT1 in 10mM sodium acetate buffer was then injected at a flow rate of 10μL/min to couple to the sensor surface, and the remaining active sites in the […]
Sensor chips were primed twice with degassed physiological running buffer (PBS buffer). A reference flow cell was activated and blocked in the absence of AKT1. […]

[1] = In vivo pharmacokinetic analysis of MG and CA after oral BHGZD (UHPLC-QTRAP-MS/MS); conditions: rat plasma after oral BHGZD 21.4 g/kg each day, n = 3
Method: The pharmacokinetic parameters were calculated by Drug and Statistic software (Shanghai, China). Detailed information on the collection of blood samples and UHPLC-QTRAP-MS/MS conditions is provided in Supplementary Materials Section 13 . […]
Section 13 Pharmacokinetic analysis […]
administration of BHGZD, ultra-fast liquid chromatography coupled with triple quadrupole-linear ion trap composite mass spectrometry (UHPLC-QTRAP-MS/MS) system was […]
Bioanalytical Method Validation issued by Chinese Pharmacopoeia Commission in 2020.
The pharmacokinetic parameters were calculated by Drug and Statistic software […]
1) Collection of blood samples
Male Lewis rats (n=6, 6-8 weeks-old, 200±20g in weight) were purchased from Beijing Vital River Laboratory Animal Technology Co., Ltd. (SCCK 2016-0006, Beijing, China; n=3 per group, including normal control group and normal control+BHGZD treatment group).
Diet was prohibited for 12h before the experiment but water was freely available. Blood samples (~0.25mL) were collected from the retinal venous plexus into heparinized 1.5mL polythene tubes before administration and 0, 0.25, 0.5, 1, 2, 3, 4, 6, 8,12 and 24h after administration of BHGZD. The plasma samples were obtained after centrifuging at 12000rpm for 15min, and stored at -20℃ prior to analysis.
2) UHPLC-QTRAP-MS/MS conditions
Quantification analysis were performed on an ultra-high-performance liquid chromatography (Shimadzu Corp., Japan) tandem ion trap quadrupole QTRAP 6500 plus mass spectrometry (AB Sciex, USA). Chromatographic separation was conducted using a Poroshell 120 EC-C18 column (3.0×50mm, 2.7μm) at 40℃. The mobile phase was consisted of 0.1% formic acid–water (v/v, A) and methanol (B) and elution program were:
Mass spectrometry detector were conducted in negative mode and the detecting parameters were set as follows: curtain gas, 35 psi; collision gas, medium; ionspray voltage, 4500 V; temperature, 550℃; ion source gas 1 and 2, 55psi. Quantitative ion pairs were optimized for MG: m/z 421.2-301.1 (declustering potential: 63V, CE: 30eV) and for […]
Data acquisition and analysis

RAW264.7 cells [2] = experiment: Cell viability, CCK-8 assay; type: cell-based, mouse; conditions: 0.21–6.74 ng/ml MG or 0.02–0.52 ng/ml CA treatment alone
Method: Cell viability was analyzed with the cell counting kit-8 (CCK-8) assay kit (Beyotime Biotechnology, Shanghai, China) as described in Supplementary Materials Section 16 .
Section 16 Cell proliferation assay
Cell viability was analyzed with Cell Counting Kit-8 (CCK-8) assay kit (Beyotime Biotechnology, China). Raw264.7 cells were seeded into 96-well plate, and after […]
solution was added to each well. The absorbance was measured after 4h of incubation at […]
Section 17 Flow cytometry
To identify and quantify of pyroptosis population of Raw264.7 cells, FITC Apoptosis Detection kit I staining with both the Annexin V-fluorescein isothiocyanate and propidium iodide (PI, BD Biosciences, San Jose, CA, USA) was used in accordance with manufacturer's guidelines. Briefly, Raw264.7 cells was washed twice with cold PBS and then resuspended in 1×binding buffer at a concentration of 1x10^6 cells/mL. Then, 100µL of the solution (1x10^5 cells) was transferred to a 5 mL culture tube. Subsequently, 5µL of FITC Annexin V and 5µL PI were added into cultured tube, and vortexed and incubated for 15 min at room temperature in the dark. Finally, 400µL 1×binding buffer was added into each tube, and analyzed by flow cytometry (ACEA Bioscience, San Diego, CA, USA) and NovoExpress 1.4.1 software (ACEA Bioscience, San Diego, CA, USA) within 1h.

RAW264.7 cells [3] = experiment: LPS/ATP-induced pyroptosis in RAW264.7 cells (flow cytometry, FAM-FLICA, immunofluorescence, Western blotting, ELISA); type: cell-based, mouse
MH7A cells = experiment: LPS/ATP-induced pyroptosis in MH7A cells (TUNEL, immunofluorescence, Western blotting, ELISA); type: cell-based, human
[4] = Chemical profiling of BHGZD in sera (UFLC-Q-TOF-MS/MS); conditions: 30 min after the treatment of BHGZD
Excerpt: (§1) A rapid, sensitive, and reliable method by the UFLC-Q-TOF-MS/MS system was used to identify the chemical profiling of BHGZD as described in Supplementary Materials Section 9 ([30]). The reference standards of these compounds ( Supplementary Table S2 ) were purchased from Chengdu Must Bio-technology Co., Ltd. (Chengdu, China), the National Institute for the Control of Pharmaceutical and Biological Products (Beijing, China), and Chengdu DeSiTe Biological Technology Co., Ltd. (Chengdu, China).
(§2) Sciex, Forster City, USA) with electrospray ionization source (ESI). Kinetex C18 column
(§3) (Phenomenex, 3.0×150 mm, 2.6μm, 100Å) was used to perform chromatographic
(§4) separation with a flow rate of 0.3mL/min at 40℃. A linear gradient program with mobile
(§5) phase system including solvent A (deionized water with 0.1% formic acid, v/v) and solvent
(§6) B (methanol) was described in details: solvent B (5~95%) for 40min, isocratic eluted at
(§7) 95% B for 5min，95%~5% B (40-45min), followed a post-run of 2min to equilibrate the
(§8) The instrumental settings of Q-TOF-MS/MS were described in the previous study
(§9) (9).Samples were analyzed in both positive and negative ionization modes with scanning
(§10) mas-to-charge (m/z) range from 50 to 1500. Data was collected in information-dependent
(§11) acquisition (IDA) mode and analyzed by PeakView® 2.2 software (AB Sciex, Foster City,
(§12) Chemical identifications were based on reference standards and mass spectral
(§13) library (Natural Products HR-MS/MS Spectral Library, Version 1.0, AB Sciex, Forster City,

[5] = rat, in vivo
Excerpt: as §1, §2, §3, §4, §5, §6, §7, §8, §9, §10, §11, §12, §13

[6] = LPS/ATP-induced RAW264.7 cells, all p < 0.05
[7] = LPS/ATP-induced, BHGZD 28.54 μg/ml, MG 1.69 ng/ml, CA 0.13 ng/ml, 24 h
[8] = LPS/ATP-induced MH7A cells, all p < 0.05

T1 sequence (P31749 whole entry): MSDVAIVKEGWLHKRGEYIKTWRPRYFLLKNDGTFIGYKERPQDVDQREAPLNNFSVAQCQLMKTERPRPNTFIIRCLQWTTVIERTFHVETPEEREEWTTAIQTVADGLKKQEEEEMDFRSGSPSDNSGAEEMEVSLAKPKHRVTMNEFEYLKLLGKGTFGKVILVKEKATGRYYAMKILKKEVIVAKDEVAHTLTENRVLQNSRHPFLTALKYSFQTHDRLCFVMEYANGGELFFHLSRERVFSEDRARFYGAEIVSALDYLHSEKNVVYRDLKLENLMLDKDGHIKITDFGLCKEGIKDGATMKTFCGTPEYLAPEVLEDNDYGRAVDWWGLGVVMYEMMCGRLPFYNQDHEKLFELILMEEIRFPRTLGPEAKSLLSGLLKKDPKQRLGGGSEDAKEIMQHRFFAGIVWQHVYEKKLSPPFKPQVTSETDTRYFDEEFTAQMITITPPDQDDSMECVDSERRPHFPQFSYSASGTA

Compound: O=c1c2cc(O)c(O)cc2oc2cc(O)c([C@@H]3O[C@H](CO)[C@@H](O)[C@H](O)[C@H]3O)c(O)c12 [MG, mangiferin]
Kd (recombinant AKT1 protein): 38.3 µM | Cmax ([1]; male, Lewis, rat, plasma, po, 21.4 g/kg, non-compartment model, read-out: Cmax): 132 ng/mL | AUC(0-t) ([1]; male, Lewis, 0-24 h): 578 ± 183 ng·h/mL | half-life ([1]; male, Lewis, apparent elimination half-life, read-out: t1/2z (converted)): 1.26 ± 0.23 h | AUC(0-inf) ([1]; male, Lewis): 579 ± 182 ng·h/mL | MRT last ([1]; male, Lewis, read-out: MRT(0-t)): 4.23 ± 0.3 h | MRT inf ([1]; male, Lewis, read-out: MRT(0-∞)): 4.25 ± 0.28 h | Tmax ([1]; male, Lewis, non-compartment model): 4 h | Cmax ([1]; non-compartment model, listed as Mangiferin (MG)): 132.07 ± 44.67 ng/mL | cell viability (CCK8) (RAW264.7 cells [2]): no cell toxicity | GSDMD-NT (RAW264.7 cells [3]; LPS/ATP-induced RAW264.7 cells, Western blotting): decreased | expression levels of NLRP3, ASC, and caspase-1 (RAW264.7 cells [3]; [6]): reduced | levels of IL-1β, IL-18, and LDH release in the supernatant (RAW264.7 cells [3]; [6]): reduced | PI positive cell rate (RAW264.7 cells [3]; LPS/ATP-induced, 1.69 ng/ml MG, 0.13 ng/ml CA, 24 h, inferior to BHGZD, all p < 0.05): prominently reduced | number of FLICA-positive RAW264.7 cells (RAW264.7 cells [3]; [7]): reduced | inhibition on cell pyroptosis induced by LPS/ATP, alone versus combination (RAW264.7 cells [3]; RAW264.7 and MH7A cells, all p < 0.05): weaker than that in the two-BAC combination treatment group | GSDMD-NT (MH7A cells; LPS/ATP-induced MH7A cells, Western blotting): decreased | expression levels of NLRP3, ASC, and caspase-1 (MH7A cells; [8]): reduced | levels of IL-1β, IL-18, and LDH release in the supernatant (MH7A cells; [8]): reduced | number of TUNEL-positive MH7A cells (MH7A cells; [7]): reduced | quantitative detection in sera after the treatment of BHGZD [4]: detected

Compound: O=C1C[C@@H](c2ccc(O)cc2)Oc2cc(O)ccc21 [liquiritigenin]
quantitative detection in sera after the treatment of BHGZD [4]: detected

Compound: COc1ccc(-c2coc3cc(O)ccc3c2=O)cc1 [formononetin]
quantitative detection in sera after the treatment of BHGZD [4]: detected

Compound: C[C@@H](CC[C@@]1(O)O[C@H]2C[C@H]3[C@@H]4CC[C@@H]5C[C@@H](O[C@@H]6O[C@H](CO)[C@H](O)[C@H](O)[C@H]6O[C@@H]6O[C@H](CO)[C@@H](O)[C@H](O)[C@H]6O)CC[C@]5(C)[C@H]4CC[C@]3(C)[C@H]2[C@@H]1C)CO[C@@H]1O[C@H](CO)[C@@H](O)[C@H](O)[C@H]1O [timosaponin B II]
quantitative detection in sera after the treatment of BHGZD [4]: detected

Compound: O=C(/C=C/c1ccc(O[C@@H]2O[C@H](CO)[C@@H](O)[C@H](O)[C@H]2O)cc1)c1ccc(O)cc1O [isoliquiritin]
quantitative detection in sera after the treatment of BHGZD [4]: detected

Compound: O=c1c2cc(O[C@@H]3O[C@H](CO)[C@@H](O)[C@H](O)[C@H]3O)c(O)cc2oc2cc(O)c([C@@H]3O[C@H](CO)[C@@H](O)[C@H](O)[C@H]3O)c(O)c12 [neomangiferin]
quantitative detection in sera after the treatment of BHGZD [4]: detected

Now from value to compound:

quantitative detection in sera after the treatment of BHGZD [4]: detected
Compound: O=c1cc(-c2ccc(O)cc2)oc2c([C@@H]3O[C@H](CO)[C@@H](O)[C@H](O)[C@H]3O)c(O)cc(O)c12 [vitexin]

quantitative detection in sera after the treatment of BHGZD [4]: detected
Compound: anemarrhensaponin I

quantitative detection in sera after the treatment of BHGZD [4]: detected
Compound: O=c1cc(-c2ccc(O)cc2)oc2c([C@@H]3O[C@H](CO)[C@@H](O)[C@H](O)[C@H]3O)c(O)c([C@@H]3OC[C@H](O)[C@H](O)[C@H]3O)c(O)c12 [isoschaftoside]

quantitative detection in sera after the treatment of BHGZD [5]: detected
Compound: COc1cc2c(=O)c3c(O)c([C@@H]4O[C@H](CO)[C@@H](O)[C@H](O)[C@H]4O)c(O)cc3oc2cc1O [7-O-methyl mangiferin]

quantitative detection in sera after the treatment of BHGZD [4]: detected
Compound: CC1(C)[C@@H](O[C@H]2O[C@H](C(=O)O)[C@@H](O)[C@H](O)[C@H]2O[C@@H]2O[C@H](C(=O)O)[C@@H](O)[C@H](O)[C@H]2O)CC[C@]2(C)[C@H]3C(=O)C=C4[C@@H]5C[C@@](C)(C(=O)O)CC[C@]5(C)CC[C@@]4(C)[C@]3(C)CC[C@@H]12 [glycyrrhizic acid]

quantitative detection in sera after the treatment of BHGZD [4]: detected
Compound: O=c1cc(-c2ccc(O)cc2)oc2cc(O)c([C@@H]3O[C@H](CO)[C@@H](O)[C@H](O)[C@H]3O)c(O)c12 [isovitexin]

From PMC9253268 (Frontiers in Immunology, 2022)
